Tested on: MuSCs transplanted into tibialis anterior muscle
Experiment: Transplantation of cultured MuSCs into irradiated NOD/SCID mice, engraftment by bioluminescence imaging
Assay type: in vivo, mouse
Conditions: young MuSCs cultured one week on soft hydrogel with 10 μM; 100 cells transplanted; one month
Description: MuSC transplantation. MuSCs were transplanted immediately following FACS isolation or after collection from cell culture directly into the tibialis anterior muscle of recipient mice as previously described. Cells from GFP/Luciferase or Myf5^nLacZl+/Luciferase mice were transplanted into gender-matched, hindlimb-irradiated NOD/SCID (Jackson) mice. NOD/SCID (2-4 months of age, median 2 months) mice were anesthetized with ketamine (2.4 mg per mouse) and xylazine (240 μg per mouse) by intraperitoneal injection then were irradiated by a single dose of 18 Gy administered to the hindlimbs, with the rest of the body shielded in a lead jig. Transplantation was performed within three days post-irradiation. In syngeneic transplant studies, cells from old C57BL/6 mice were transplanted into gender-matched, littermate old C57BL/6 mice (Jackson) following culture for one week on soft hydrogels. Specifically, old C57BL/6 MuSCs were infected with a GFP/Luciferase lentivirus added at day 2 of culture for 24 hours. Recipient old C57BL/6 mice were acutely injured by a single 10 μl intramuscular injection of notexin (10 μg/ml; Latoxan, France) two days prior to cell transplantation, but were not irradiated. Freshly isolated or cultured cells were counted by hemocytometer and resuspended at desired cell concentrations in PBS with 2.5% goat serum and 1 mM EDTA. Cells were collected from hydrogel cultures by incubation with 0.5% trypsin in PBS for 2 min at 37° C. and counted using a hemocytometer. Cells were transplanted by intramuscular injection into the tibialis anterior muscle in a 10 μl volume.
Tissue histology. Recipient tibialis anterior muscle tissues were prepared for histology as previously described to analyze GFP expression. Transverse sections were incubated with anti-laminin (Millipore, Billerica, Calif.), anti-GFP (Invitrogen) antibodies, and/or anti-β-galactosidase (Abcam, Cambridge, Mass.) with appropriate secondary antibodies (Invitrogen). Nuclei were counter-stained with Hoechst 33342 (Invitrogen). Images were acquired with an AxioPlan2 epi-fluorescent microscope (Carl Zeiss Microimaging, Thornwood, N.Y.) with Plan NeoFluar 10×/0.30NA or 20×/0.75NA objectives (Carl Zeiss) and an ORCA-ER digital camera (Hamamatsu Photonics, Bridgewater, N.J.). Digital images were captured in OpenLab software (Improvision, Waltham, Mass.) and assembled in Photoshop software (Adobe, San Jose, Calif.) with consistent contrast adjustments across all images from the same stain.
Bioluminescence imaging. Bioluminescence imaging was performed using a Xenogen-100 system, as previously described. Briefly, mice were anesthetized under isofluorane and 100 μL luciferin (0.1 mmol/kg; Caliper LifeSciences, Hopkinton, Mass.) in PBS was administered by intraperitoneal injection. Following luciferin administration, images were acquired every minute for 15 min. Images acquired at 12 min post-luciferin injection were used for analysis. Digital images were recorded and analyzed using Living Image software (Caliper LifeSciences). Images were analyzed with a consistent region-of-interest (ROI) placed over each hindlimb to calculate a bioluminescence signal. A bioluminescence signal value of 80,000 photons/s was used to define a engraftment threshold, as this level corresponds to the histological detection of one or more GFP^+ myofiber (see FIG. 8A). BLI imaging was performed one month post-transplant unless otherwise stated.
MuSC culture and treatment. Following isolation, MuSCs were pelleted and resuspended into myogenic cell culture medium containing DMEM/F10 (50:50), 15% FBS, 2.5 ng/ml bFGF, and 1% penicillin/streptomycin. MuSCs were seeded at 1000 cells per well (24-well plate size wells, 2.0 cm^2 surface area) on laminin-tethered hydrogels of either 12 kPa (soft) or ˜10^6 kPa (rigid) rigidities. Cells were maintained at 37° C. in 5% CO2. Media was changed daily. […]

Structure (SMILES): C[S+]([O-])c1ccc(-c2nc(-c3ccncc3)c(-c3ccc(F)cc3)[nH]2)cc1 (stereo not shown) [SB203580]
- Transplant engraftment efficiency (in words): improves the transplant engraftment efficiency
